Patent EP4763838A1, “COMPOUND AND USE THEREOF” (Ocean University of China, priority 2023, dated 2025)

Molecular target: T1, BRD protein (Homo sapiens, UniProt O60885)
T1 construct: endogenous in cells; host or cells: MV-4-11
Test: Reduction of bromodomain protein (BRD) expression levels in MV-4-11 cells (Western blot, DC50 and Dmax)
Format: cell-based
Settings: BRD4 Western blot, GAPDH internal reference; for DC50: 24 hours of treatment, 0.1, 1, 10 and 20 µM; for Dmax: MV4-11, 24 hours of treatment, 0.1, 1, 10 and 20 µM
Procedure: The human […] MV-4-11 cells selected in this experiment were cultured in Iscove's Modified Dulbecco's Medium (IMDM) culture medium containing 10% fetal bovine serum (Gibco, USA) in an incubator under the conditions of at 37°C, 5% CO2 and 95% humidity. When the growth density reached 80%, a culture medium containing the compound was selected, and the cells were inoculated into a 6-well plate with a cell density of 1×10^6/ml, so that the final concentrations of the compound were 0.1, 1, 10 and 20 µM. After 24 hours of treatment, the cells were collected, washed twice with PBS and lysed with an RIPA lysis buffer containing a protease inhibitor and a phosphatase inhibitor. The lysed mixed solution was centrifuged to obtain a total protein extract. The concentration of the protein in the extract was detected by using a BCA method.
Protein electrophoresis was performed via SDS-PAGE, followed by constant-current electrotransfer at 200 mA for 150 min to transfer proteins onto a polyvinylidene fluoride (PVDF) membrane. The PVDF membrane was placed in 5% skim milk and blocked for 1 h at room temperature. BRD4 (#13440, CST) (1:1000) and C-MYC (ab32072, 1:1000) were added for incubation overnight at 4°C. The membrane was washed with Tris buffered saline Tween (TBST) for 3 times, with 10 min each time. The mixture of the membrane and a secondary antibody were incubated for 60 min at room temperature. The membrane was washed with TBST for 3 times, with 10 min each time. The ECL light-emitting liquid was dropwise added for exposure. Each sample was simultaneously detected using GAPDH protein as an internal reference. The protein profile was analyzed for grayscale values using analysis software ImageJ. The gray scale correction value of each sample was calculated by using the formula was used below: gray scale correction value = (target protein gray scale value/corresponding internal reference gray scale value) × 10^3Then, the calculated gray scale correction value was compared with a control gray scale correction value to calculate a degradation rate. Then, nonlinear curve fitting was performed on a logarithmic concentration-inhibition rate using Prism to obtain the DC50 and Dmax values of the compound.
Table 13 summarizes the evaluation of the reduction effects of protein degraders PRTB-01 to 16 on BRD protein expression levels. DC50 represents the concentration of the protein degrader when it induces 50% of the BRD protein to be degraded, with the level classified as A (DC50<1 µM), B (DC50 1 to 10 µM), or C (DC50>10 µM). Dmax represents the proportion of the maximum degree of […] protein degradation induced by the protein degrader to the total amount of BRD protein, with the level graded as A (Dmax>85%), B (Dmax85~50%), or C ([…]<50%) Table 13 Evaluation of protein degraders PRTB-01 to 16 in reducing BRD protein expression levels

Structure (SMILES)	DC50 [nM]	Dmax [%]
Cc1sc2c(c1C)C(c1ccc(Cl)cc1)=N[C@@H](CC(=O)NCCCCNC(=O)COc1ccc(C3CCC(=O)NC3=O)nn1)c1nnc(C)n1-2 (some centres unmarked) [PRTB-01]	1000 to 10000	< 50
Cc1sc2c(c1C)C(c1ccc(Cl)cc1)=N[C@@H](CC(=O)NCCOCC(=O)N1CCN(c3nnc(C4CCC(=O)NC4=O)c4ccccc34)CC1)c1nnc(C)n1-2 (some centres unmarked) [PRTB-11]	> 10000	< 50
Cc1sc2c(c1C)C(c1ccc(Cl)cc1)=N[C@@H](CC(=O)NCCOCC(=O)N1CCN(c3nnc(C4CCC(=O)NC4=O)c4c3CCCC4)CC1)c1nnc(C)n1-2 (some centres unmarked) [PRTB-10]	> 10000	< 50
Cc1sc2c(c1C)C(c1ccc(Cl)cc1)=N[C@@H](CC(=O)NCCCn1cc(C#Cc3ccc(C4CCC(=O)NC4=O)nn3)cn1)c1nnc(C)n1-2 (some centres unmarked) [PRTB-15]	< 1000	> 85
COc1nnc(C2CCC(=O)NC2=O)cc1N1CCN(C(=O)COCCNC(=O)C[C@@H]2N=C(c3ccc(Cl)cc3)c3c(sc(C)c3C)-n3c(C)nnc32)CC1 (some centres unmarked) [PRTB-16]	> 10000	< 50
Cc1sc2c(c1C)C(c1ccc(Cl)cc1)=N[C@@H](CC(=O)NCCCCCOC1CN(c3ccc(C4CCC(=O)NC4=O)nn3)C1)c1nnc(C)n1-2 (some centres unmarked) [PRTB-12]	< 1000	> 85
Cc1sc2c(c1C)C(c1ccc(Cl)cc1)=N[C@@H](CC(=O)NCCCCC(=O)N1CCN(c3ccc(C4CCC(=O)NC4=O)nn3)CC1)c1nnc(C)n1-2 (some centres unmarked) [PRTB-05]	1000 to 10000	< 50
Cc1sc2c(c1C)C(c1ccc(Cl)cc1)=N[C@@H](CC(=O)NCCCC(=O)N1CCN(c3ccc(C4CCC(=O)NC4=O)nn3)CC1)c1nnc(C)n1-2 (some centres unmarked) [PRTB-04]	1000 to 10000	< 50
Cc1sc2c(c1C)C(c1ccc(Cl)cc1)=N[C@@H](CC(=O)NCCCn1ccc(C#Cc3ccc(C4CCC(=O)NC4=O)nn3)n1)c1nnc(C)n1-2 (some centres unmarked) [PRTB-14]	< 1000	50 to 85
Cc1sc2c(c1C)C(c1ccc(Cl)cc1)=N[C@@H](CC(=O)NCCCCCNC(=O)COc1ccc(C3CCC(=O)NC3=O)nn1)c1nnc(C)n1-2 (some centres unmarked) [PRTB-02]	< 1000	> 85
Cc1sc2c(c1C)C(c1ccc(Cl)cc1)=N[C@@H](CC(=O)NCCCCCCNC(=O)COc1ccc(C3CCC(=O)NC3=O)nn1)c1nnc(C)n1-2 (some centres unmarked) [PRTB-03]	1000 to 10000	< 50
Cc1sc2c(c1C)C(c1ccc(Cl)cc1)=N[C@@H](CC(=O)NCCOCC(=O)N1CCN(c3ccc(C4CCC(=O)NC4=O)nn3)CC1)c1nnc(C)n1-2 (some centres unmarked) [PRTB-06]	1000 to 10000	50 to 85
Cc1sc2c(c1C)C(c1ccc(Cl)cc1)=N[C@@H](CC(=O)NCCOCC(=O)N1CCN(c3ccc(N4CCC(=O)NC4=O)nn3)CC1)c1nnc(C)n1-2 [PRTB-08]	1000 to 10000	50 to 85
Cc1cc(N2CCN(C(=O)COCCNC(=O)C[C@@H]3N=C(c4ccc(Cl)cc4)c4c(sc(C)c4C)-n4c(C)nnc43)CC2)nnc1C1CCC(=O)NC1=O (some centres unmarked) [PRTB-09]	1000 to 10000	50 to 85
Cc1sc2c(c1C)C(c1ccc(Cl)cc1)=N[C@@H](CC(=O)NCCCCCNC(=O)C#Cc1ccc(C3CCC(=O)NC3=O)nn1)c1nnc(C)n1-2 (some centres unmarked) [PRTB-13]	< 1000	> 85
Cc1sc2c(c1C)C(c1ccc(Cl)cc1)=N[C@@H](CC(=O)NCCCOCC(=O)N1CCN(c3ccc(C4CCC(=O)NC4=O)nn3)CC1)c1nnc(C)n1-2 (some centres unmarked) [PRTB-07]	> 10000	< 50
